The target of one assay is wt-TOR2 (TOR2 kinase) (Saccharomyces cerevisiae, UniProt P32600). The assay is described as follows: in vitro kinase assay of purified TORC2 at […] ATP. It is filed as biochemical.
Assay [1] addresses as-TOR2 (TOR2 kinase, analog-sensitive allele) (Saccharomyces cerevisiae, UniProt P32600, L2178A). The assay is described as follows: in vitro kinase assay of purified TORC2 at […] ATP. The assay is classed as biochemical.

The structures appear in SMILES notation.

The term IC50 denotes the concentration at which inhibition is half-maximal.

As for `Cn1c(=O)n(-c2ccc(C(C)(C)C#N)cc2)c2c3cc(-c4cnc5ccccc5c4)ccc3ncc21` [BEZ235], the IC50 is 0.111 µM on wt-TOR2 (TOR2 kinase) and 0.05 µM in assay [1].

(Values after PMC4007695 (Cell reports, 2013).)
